The target of one assay is T1, human DGKζ (Homo sapiens, UniProt Q13574).
T1 construct: TVMV protease cleavage site (C); Hexa-His (C); made in house; host or cells: Sf9 insect cells (baculovirus, Bac-to-Bac)
The experiment in a line: DGKζ LIPGLO assay (extruded liposome substrate), in vitro DGK inhibition. Type of assay: biochemical. Conditions: read-out: DGKz LIPGLO IC50.

Another assay concerns the target T2, human DGKα (Homo sapiens, UniProt P23743).
T2 construct: TVMV protease cleavage site (C); Hexa-His (C); made in house; host or cells: Sf9 insect cells (baculovirus, Bac-to-Bac)
The assay is described as follows: DGKα LIPGLO assay (extruded liposome substrate), in vitro DGK inhibition. Format: biochemical. Conditions: read-out: DGKa LIPGLO IC50.

Molecules are shown by their SMILES. pIC50: −log10 of the molar value. Where two headings read alike, the source gives them in different places. Bounds are passed on as bounds.

T2 sequence (P23743 with tags, fused parts or gaps): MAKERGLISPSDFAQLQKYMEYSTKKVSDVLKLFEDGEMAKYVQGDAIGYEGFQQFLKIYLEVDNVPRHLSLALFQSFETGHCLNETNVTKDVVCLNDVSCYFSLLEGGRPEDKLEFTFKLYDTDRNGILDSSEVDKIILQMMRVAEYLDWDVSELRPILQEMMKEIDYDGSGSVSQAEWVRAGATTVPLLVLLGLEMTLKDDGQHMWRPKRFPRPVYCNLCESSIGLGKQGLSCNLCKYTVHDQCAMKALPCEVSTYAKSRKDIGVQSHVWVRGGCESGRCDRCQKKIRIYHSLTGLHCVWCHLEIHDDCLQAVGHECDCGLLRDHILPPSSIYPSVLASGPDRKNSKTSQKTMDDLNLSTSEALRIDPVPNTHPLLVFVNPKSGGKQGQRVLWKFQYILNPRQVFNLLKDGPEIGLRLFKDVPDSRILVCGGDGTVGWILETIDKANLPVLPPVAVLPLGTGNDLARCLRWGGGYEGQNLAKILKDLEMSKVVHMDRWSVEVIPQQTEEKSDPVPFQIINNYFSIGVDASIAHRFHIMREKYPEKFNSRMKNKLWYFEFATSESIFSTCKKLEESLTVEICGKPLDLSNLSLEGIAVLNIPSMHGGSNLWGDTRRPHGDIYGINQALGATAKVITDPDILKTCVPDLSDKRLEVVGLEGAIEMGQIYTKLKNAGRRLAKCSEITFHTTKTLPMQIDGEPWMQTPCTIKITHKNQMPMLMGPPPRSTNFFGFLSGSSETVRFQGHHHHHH
T1 sequence (Q13574 with tags, fused parts or gaps isoform Q13574-4): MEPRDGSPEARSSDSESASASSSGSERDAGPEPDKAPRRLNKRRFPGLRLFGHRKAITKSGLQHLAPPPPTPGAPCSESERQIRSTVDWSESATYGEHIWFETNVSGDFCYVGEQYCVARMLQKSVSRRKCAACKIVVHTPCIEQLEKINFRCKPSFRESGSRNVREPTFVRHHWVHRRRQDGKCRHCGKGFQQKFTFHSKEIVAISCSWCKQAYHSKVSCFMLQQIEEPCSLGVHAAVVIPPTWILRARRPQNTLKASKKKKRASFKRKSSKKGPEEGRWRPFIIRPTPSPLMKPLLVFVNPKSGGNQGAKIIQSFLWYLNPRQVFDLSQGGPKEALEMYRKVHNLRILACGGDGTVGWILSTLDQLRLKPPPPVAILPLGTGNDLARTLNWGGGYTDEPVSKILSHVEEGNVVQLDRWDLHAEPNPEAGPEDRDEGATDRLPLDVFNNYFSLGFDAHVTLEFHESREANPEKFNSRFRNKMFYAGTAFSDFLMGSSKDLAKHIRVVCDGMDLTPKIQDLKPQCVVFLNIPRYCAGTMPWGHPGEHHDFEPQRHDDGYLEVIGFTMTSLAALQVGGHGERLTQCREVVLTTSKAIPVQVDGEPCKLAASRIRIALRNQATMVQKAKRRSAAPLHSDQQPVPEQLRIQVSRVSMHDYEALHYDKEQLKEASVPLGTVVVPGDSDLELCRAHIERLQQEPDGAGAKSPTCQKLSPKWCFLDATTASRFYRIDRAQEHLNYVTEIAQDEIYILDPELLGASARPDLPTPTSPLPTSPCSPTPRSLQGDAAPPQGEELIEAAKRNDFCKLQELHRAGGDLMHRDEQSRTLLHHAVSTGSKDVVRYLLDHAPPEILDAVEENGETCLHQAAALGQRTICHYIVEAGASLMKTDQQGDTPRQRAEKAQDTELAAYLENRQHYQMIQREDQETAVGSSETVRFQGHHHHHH

On to `C[C@@H]1CN(c2cc(=O)n(C)c3ccc(C#N)nc23)[C@@H](C)CN1C(c1ccc(F)cc1)c1ccccc1N1CCOCC1` (single isomer, unassigned) [Example 664], for which the pIC50 is 5.35 on human DGKζ (liposome (LIPGLO) assay) and under 3.60 on human DGKα (liposome (LIPGLO) assay).
The matching figures for `C[C@@H]1CN(c2cc(=O)n(C)c3ccc(C#N)nc23)[C@@H](C)CN1C(c1ccc(F)cc1)c1ccc(P(C)(C)=O)cc1` (single isomer, unassigned) [Example 1293]: 5.21 and 4.00.
As to `C[C@@H]1CN(c2cc(=O)n(C)c3ccc(C#N)nc23)[C@@H](C)CN1C(c1ccc(F)cc1)c1nnc(C2CC2)s1` (single isomer, unassigned) [Example 775], the pIC50 at human DGKζ (DGKζ liposome (LIPGLO) assay) was 5.18; at human DGKα (DGKα liposome (LIPGLO) assay), 5.24.
Turning to `CC(c1cccc(OC(F)F)c1)N1C[C@H](C)N(c2cc(=O)n(C)c3ccc(C#N)nc23)C[C@H]1C` (single isomer, unassigned) [Example 1271], the pIC50 on human DGKζ (liposome (LIPGLO) assay) is 7.52; on human DGKα (liposome (LIPGLO) assay), 6.82.
As to `CC[C@@H]1CN(c2cc(=O)n(C)c3ccc(C#N)nc23)[C@@H](C)CN1C(CC1CCCCC1)c1ccc(OC(F)(F)F)cc1` (stereo partly shown) [Example 1196], the pIC50 at human DGKζ (liposome (LIPGLO) assay) is 6.57; at human DGKα (liposome (LIPGLO) assay) it was 5.85.
On to `CC[C@@H]1CN(c2cc(=O)n(C)c3ccc(C#N)nc23)[C@@H](C)CN1C(C)c1c(F)cc(F)cc1F` (single isomer, unassigned) [Example 1090], for which the pIC50 was 5.74 on human DGKζ (liposome (LIPGLO) assay) and 5.39 on human DGKα (liposome (LIPGLO) assay).
Turning to `C[C@@H]1CN(C(c2ccc(F)cc2)c2ccc(C#N)cc2)[C@@H](CO)CN1c1cc(=O)n(C)c2ccc(C#N)nc12` (single isomer, unassigned) [Example 1177], the pIC50 on human DGKζ (liposome (LIPGLO) assay) is 6.21; at human DGKα (liposome (LIPGLO) assay), 5.00.
For the compound `Cc1ccc(C(c2cccc(F)c2)N2C[C@H](C)N(c3cc(=O)n(C)c4ccc(C#N)nc34)C[C@H]2CO)nc1` (stereo partly shown) [Example 1153], the pIC50 at human DGKζ (liposome (LIPGLO) assay) was 4.49; on human DGKα (liposome (LIPGLO) assay), 5.18.
With `C[C@@H]1CN(c2cc(=O)n(C)c3ccc(C#N)nc23)[C@@H](C)CN1C(c1ccc(OC(F)(F)F)cc1)c1ccccn1` (stereo partly drawn) [Example 405, 8-((2S,5R)-2,5-dimethyl-4-(pyridin-2-yl(4-(trifluoromethoxy)phenyl)methyl)piperazin-1-yl)-5-methyl-6-oxo-5,6-dihydro-1,5-naphthyridine-2-carbonitrile], the pIC50 is 5.40 at human DGKζ (liposome (LIPGLO) assay) and 6.34 at human DGKα (liposome (LIPGLO) assay).
Turning to `Cc1ccc(C(c2cccc(F)c2)N2CCN(c3c(C#N)c(=O)n(C)c4ccc(C#N)nc34)C[C@H]2C)nc1` (single isomer, unassigned) [Example 912], the pIC50 is 6.24 on human DGKζ (DGKζ liposome (LIPGLO) assay) and 5.68 at human DGKα (DGKα liposome (LIPGLO) assay).
In the case of `C[C@@H]1CN(c2cc(=O)n(C)c3ccc(C#N)nc23)[C@@H](C)CN1C(c1ccc(F)cc1)c1nnc(C2CC2)s1` (stereo partly drawn) [Example 774, 8-((2S,5R)-4-((5-cyclopropyl-1,3,4-thiadiazol-2-yl)(4-fluorophenyl)methyl)-2,5-dimethylpiperazin-1-yl)-5-methyl-6-oxo-5,6-dihydro-1,5-naphthyridine-2-carbonitrile], the pIC50 at human DGKζ (DGKζ liposome (LIPGLO) assay) was 5.96; on human DGKα (DGKα liposome (LIPGLO) assay), 6.20.
Turning to `CC(c1ccc(C#N)c(OCCN(C)C)c1)N1C[C@H](C)N(c2cc(=O)n(C)c3ccc(C#N)nc23)C[C@H]1C` (single isomer, unassigned) [Example 1322], the results for the pIC50 on human DGKζ (liposome (LIPGLO) assay) and on human DGKα (liposome (LIPGLO) assay) were 4.28 and 3.89, respectively.
For `C[C@@H]1CN(c2cc(=O)n(C)c3ccc(C#N)nc23)[C@@H](C)CN1C(c1ccc(F)cc1)c1nc(C(C)(C)C)co1` (single isomer, unassigned) [Example 778], the figures for the pIC50 at human DGKζ (DGKζ liposome (LIPGLO) assay) and at human DGKα (DGKα liposome (LIPGLO) assay) were 6.47 and 6.82, respectively.
As for `Cc1nccc(C(c2ccc(F)cc2)N2CCN(c3c(C#N)c(=O)n(C)c4ccc(C#N)nc34)C[C@H]2C)n1` (stereo partly drawn) [Example 316, 8-((3R)-4-((4-fluorophenyl)(2-methylpyrimidin-4-yl)methyl)-3-methylpiperazin-1-yl)-5-methyl-6-oxo-5,6-dihydro-1,5-naphthyridine-2,7-dicarbonitrile], the pIC50 was 6.03 on human DGKζ (liposome (LIPGLO) assay) and 5.62 on human DGKα (liposome (LIPGLO) assay).
Regarding `C[C@@H]1CN(c2cc(=O)n(C)c3ccc(C#N)nc23)[C@@H](C)CN1CCc1ccccc1` [Example 632], the figures for the pIC50 on human DGKζ (liposome (LIPGLO) assay) and at human DGKα (liposome (LIPGLO) assay) were 4.96 and 5.19, respectively.
As to `C[C@@H]1CN(c2c(C#N)c(=O)n(C)c3ccc(C#N)nc23)CCN1C(c1ccc(Cl)cc1)c1ncccc1F` (stereo partly shown) [Example 909], the figures for the pIC50 on human DGKζ (DGKζ liposome (LIPGLO) assay) and at human DGKα (DGKα liposome (LIPGLO) assay) were 4.80 and 5.47, respectively.
For `C[C@@H]1CN(c2cc(=O)n(C)c3ccc(C#N)nc23)[C@@H](C)CN1C(c1ccc(F)cc1)c1nc(C2CC2)co1` (stereo partly drawn) [Example 776, 8-((2S,5R)-4-((4-cyclopropyloxazol-2-yl)(4-fluorophenyl)methyl)-2,5-dimethylpiperazin-1-yl)-5-methyl-6-oxo-5,6-dihydro-1,5-naphthyridine-2-carbonitrile], the pIC50 on human DGKζ (DGKζ liposome (LIPGLO) assay) is 7.42; at human DGKα (DGKα liposome (LIPGLO) assay), 7.26.
The matching figures for `Cc1ccc(C(c2ccc(Cl)cn2)N2CCN(c3c(C#N)c(=O)n(C)c4ccc(C#N)nc34)C[C@H]2C)cc1` (single isomer, unassigned) [Example 937]: 5.96 and 6.47.
For the compound `CC(c1ccc(F)c(C#N)c1)N1C[C@H](C)N(c2cc(=O)n(C)c3ccc(C#N)nc23)C[C@H]1C` (stereo partly shown) [Example 1262], the pIC50 on human DGKζ (liposome (LIPGLO) assay) is 5.89; on human DGKα (liposome (LIPGLO) assay) it was 5.27.
Consider `C[C@@H]1CN(c2cc(=O)n(C)c3ccc(C#N)nc23)[C@@H](C)CN1C(c1ccc(F)cc1)C1CCOCC1` (single isomer, unassigned) [Example 388], for which the pIC50 on human DGKζ (liposome (LIPGLO) assay) was 4.85; on human DGKα (liposome (LIPGLO) assay), 5.07.
The matching figures for `C[C@@H]1CN(c2cc(=O)n(C)c3ccc(C#N)nc23)[C@@H](C)CN1C(c1ccc(F)cc1)c1cccnn1` (single isomer, unassigned) [Example 384]: 5.16 and 5.82.
Regarding `CC(c1ccc(C#N)c(OCCN(C)C)c1)N1C[C@H](C)N(c2cc(=O)n(C)c3ccc(C#N)nc23)C[C@H]1C` (single isomer, unassigned) [Example 1323], the pIC50 at human DGKζ (liposome (LIPGLO) assay) was 5.15; at human DGKα (liposome (LIPGLO) assay) it was 3.89.
On to `CC(c1ccc(Br)cc1)N1C[C@H](C)N(c2c(C#N)c(=O)n(C)c3ccc(C#N)nc23)C[C@H]1C` (single isomer, unassigned) [Example 790], for which the pIC50 at human DGKζ (DGKζ liposome (LIPGLO) assay) is under 3.60; at human DGKα (DGKα liposome (LIPGLO) assay) it was 6.21.
On to `CC[C@H]1CN(C(c2cccc(F)c2)c2ccc(OC)cn2)[C@H](CC)CN1c1cc(=O)n(C)c2ccc(C#N)nc12` (stereo partly shown) [Example 1047], for which the pIC50 was 6.57 on human DGKζ (liposome (LIPGLO) assay) and 6.68 at human DGKα (liposome (LIPGLO) assay).
In the case of `C[C@@H]1CN(c2c(C#N)c(=O)n(C)c3ccc(C#N)nc23)CCN1C(c1ccc(Cl)cc1)c1ccc(F)cn1` (single isomer, unassigned) [Example 900], the pIC50 was 6.10 on human DGKζ (DGKζ liposome (LIPGLO) assay) and 5.59 at human DGKα (DGKα liposome (LIPGLO) assay).
With `Cc1ccc(C(c2ccc(C)cc2)N2C[C@H](C)N(c3cc(=O)n(C)c4ccc(C#N)nc34)C[C@H]2CO)cc1` [Example 1150, 8-((2S,5S)-4-(di-p-tolylmethyl)-5-(hydroxymethyl)-2-methylpiperazin-1-yl)-5-methyl-6-oxo-5,6-dihydro-1,5-naphthyridine-2-carbonitrile], the pIC50 at human DGKζ (liposome (LIPGLO) assay) and at human DGKα (liposome (LIPGLO) assay) was 4.74 throughout.
For the compound `CCC(c1ccc(OC(F)(F)F)cc1)N1C[C@H](CC)N(c2cc(=O)n(C)c3ccc(C#N)nc23)C[C@H]1CC` (single isomer, unassigned) [Example 1059], the pIC50 was 7.36 at human DGKζ (liposome (LIPGLO) assay) and 8.05 on human DGKα (liposome (LIPGLO) assay).
Consider `CC[C@H]1CN(C(c2ccc(F)cc2)c2csc(C(F)(F)F)n2)[C@H](CC)CN1c1cc(=O)n(C)c2ccc(C#N)nc12` (single isomer, unassigned) [Example 1361], for which the pIC50 at human DGKζ (liposome (LIPGLO) assay) and at human DGKα (liposome (LIPGLO) assay) was 7.96 each time.
In the case of `CCC(c1cc(Cl)cc2c1OCC2)N1C[C@H](C)N(c2cc(=O)n(C)c3ccc(C#N)nc23)C[C@H]1C` (stereo partly drawn) [Example 353, 8-((2S,5R)-4-(1-(5-chloro-2,3-dihydrobenzofuran-7-yl)propyl)-2,5-dimethylpiperazin-1-yl)-5-methyl-6-oxo-5,6-dihydro-1,5-naphthyridine-2-carbonitrile], the pIC50 at human DGKζ (liposome (LIPGLO) assay) was 5.85; on human DGKα (liposome (LIPGLO) assay) it was 4.14.
As for `CC(c1ccc(OC(F)(F)F)cc1)N1C[C@@H](C)N(c2cc(=O)n(C)c3ccc(C#N)nc23)C[C@@H]1CO` (single isomer, unassigned) [Example 1181], the pIC50 on human DGKζ (liposome (LIPGLO) assay) was 5.60; on human DGKα (liposome (LIPGLO) assay), 4.11.
Turning to `Cn1c(=O)c(C#N)c(N2CCN(C(c3ccc(F)cc3)c3ccc(F)cc3)C(C(=O)O)C2)c2nc(Br)ccc21` (stereo not shown) [Example 52, 1-(bis(4-fluorophenyl)methyl)-4-(6-bromo-3-cyano-1-methyl-2-oxo-1,2-dihydro-1,5-naphthyridin-4-yl)piperazine-2-carboxylic acid], the pIC50 is 3.82 at human DGKζ (liposome (LIPGLO) assay) and 4.62 at human DGKα (liposome (LIPGLO) assay).
Regarding `Cc1nccc(C(c2ccc(F)cc2)N2CCN(c3c(C#N)c(=O)n(C)c4ccc(C#N)nc34)C[C@H]2C)n1` (stereo partly drawn) [Example 315, 8-((3R)-4-((4-fluorophenyl)(2-methylpyrimidin-4-yl)methyl)-3-methylpiperazin-1-yl)-5-methyl-6-oxo-5,6-dihydro-1,5-naphthyridine-2,7-dicarbonitrile], the pIC50 is 5.74 on human DGKζ (liposome (LIPGLO) assay) and 5.39 on human DGKα (liposome (LIPGLO) assay).
Take `CC[C@H]1CN(C(C)c2ccc(OC(F)(F)F)cc2)[C@H](COC)CN1c1cc(=O)n(C)c2ccc(C#N)nc12` (single isomer, unassigned) [Example 1408]: the pIC50 on human DGKζ (liposome (LIPGLO) assay) was 7.08; on human DGKα (liposome (LIPGLO) assay), 7.72.
`Cc1ccc(C(c2ccc(Cl)cc2)N2C[C@H](C)N(c3c(C#N)c(=O)n(C)c4ccc(C#N)nc34)C[C@H]2C)cc1` (stereo partly shown) [Example 826]: the pIC50 is 5.51 at human DGKζ (DGKζ liposome (LIPGLO) assay) and 4.37 on human DGKα (DGKα liposome (LIPGLO) assay).
For `C[C@@H]1CN(c2c(C#N)c(=O)n(C)c3ccc(C#N)nc23)CCN1Cc1cccc(OC(F)(F)F)c1` [Example 1008], the pIC50 on human DGKζ (DGKζ liposome (LIPGLO) assay) is 5.15; on human DGKα (DGKα liposome (LIPGLO) assay), 5.77.
